{"source": "patent US8906869B2", "about": "(University of South Florida, priority 2007, dated 2014)", "key": {"A2780CP cells": {"test_system": "A2780CP cells", "assay": "MTT cell viability and flow cytometry apoptosis in A2780CP cells", "type": "cell-based, human", "experimental": "(§1) FIG. 4. […] (B) MTT assay. […] (C) Flow cytometry. Indicated cells were treated with cisplatin or DMSO for 12 h and the subG1 population was identified by flow cytometry.\nThe cells transfected with 2′-O-methyl-scramble-miR were used as control. […] Further, the cells were treated with cisplatin or vehicle DMSO."}, "Akt": {"test_system": "Akt", "assay": "Immunoblotting of phosphorylation of Akt and Akt substrates in A2780CP cells after knockdown of miR-214", "type": "cell-based, human", "details": "150 pM/well, 72 h", "experimental": "(§2) PTEN mRNA level was measured by RT-PCR (panel 8). U6 (panel 7) and GAPDH (bottom panel) were used for controls. […] Anti-mi[…] and scramble 2'-O-methyl oligonucleotide were used as controls. After incubation of 72 h, cells were lysed and immunoblotted with indicated antibodies (C). […] Following 36 h incubation, cells were subjected to luciferase assay. The data are the means of three independent experiments, and error bars indicate standard deviations. (F) Representative tumor and normal tissue lysates were analyzed by Western blot with indicated antibodies (panels 1 and 2). […] U6 was used as a control (bottom panel). […] Cells were grown in 6-well plate ([…]) for 24 hand transfected with 150 pMol of 2'-O-me oligoribonucleotides per well using Lipofectamine 2000. RNA and protein were extracted after 72 h transfection. […] The cells transfected with pcDNA3.[…][…]-Togo vector alone and pcDNA3.[…][…]-Topo-miR-199a* were used as controls. […]). […] PTEN protein was examined in a same series of normal ovary and primary ovarian tumor specimens for expression of miRNAs (FIG. 2F)."}, "PTEN [1]": {"test_system": "PTEN", "assay": "Immunoblotting of PTEN protein in A2780CP cells after knockdown of miR-214", "type": "cell-based, human", "details": "150 pM/well, 72 h", "experimental": "as §2"}, "miR-214": {"test_system": "miR-214", "assay": "qRT-PCR of miR-214 expression after antisense 2'-O-methyl oligonucleotide transfection", "type": "cell-based, human", "details": "A2780CP cells, 150 pMol per well, 72 h transfection", "experimental": "as §1\nExpression of miRNAs was also analysed by RNase protection or mirVana qRT-PCR miRNA detection assay. For RNase protection assay, enriched small RNA was purified using the miRVana miRNA isolation Kit (Ambion). […] Probe hybridization and RNase protection were then carried out using the mirVana™ miRNA detection kit (Ambion) according to manufacturer's instructions. After hybridization and RNase treatment, the double-strand products were resolved in a 15% polyacrylamide 8 M urea denaturing gel and visualized using phospho imaging and autoradiography. mirVanaqRT-PCR was performed according to the manufacturer's protocol (Ambion). PCR products were analyzed by electrophoresis, on a 7.5% polyacrylamide gel in 0.5×TBE and visualized by ethidium bromide staining.\n2′-O-methyl (2-O-me) oligoribonucleotides were synthesized by Integrated DNA Technologies. […] […]-3′ (SEQ ID NO: 5) and 5′-[…]-3′ (SEQ ID NO: 6). 2′-O-me-scrambled miR (5′-[…]-3′) (SEQ ID NO: 7) was used as a control. Cells were grown in 6-well plate ([…]) for 24 hand transfected with 150 pMol of 2′-O-me oligoribonucleotides per well using Lipofectamine 2000. RNA and protein were extracted after 72 h transfection."}, "PTEN [2]": {"test_system": "PTEN", "details": "ovarian cancer, reference 25; cited from earlier work"}}}
{"molecule": "2′-O-methyl-anti-miR-214: antisense 2′-O-methyl oligoribonucleotide targeting miR-214, 5′-CUGCCUGUCUGUGCCUGCUGU-3′ (SEQ ID NO: 5) (all 2'-O-methyl, backbone not given here)", "values": [{"measurement": "sensitization to cisplatin-induced apoptosis", "setting": "A2780CP cells; cisplatin 20 uM, MTT and flow cytometry", "value": "considerably sensitized A2780CP cells to cisplatin-induced apoptosis"}, {"measurement": "reduction of cell survival", "setting": "A2780CP cells; knockdown of miR-214 alone, cell viability analysis", "value": "about 20%"}, {"measurement": "phosphorylation levels of Akt and Akt substrates GSK3β and p70S6K", "setting": "Akt", "value": "decreased"}, {"measurement": "protein level of PTEN", "setting": "PTEN [1]", "value": "increased the protein level of PTEN"}, {"measurement": "level of miR-214", "setting": "miR-214", "value": "significantly decreased"}]}
{"molecule": "Nc1ncn([C@H]2C[C@H](O)[C@@H](CO)O2)c(=O)n1", "note": "[5-aza-2′ deoxycytidine]", "values": [{"measurement": "PTEN protein expression", "setting": "PTEN [2]", "value": "failed to restore PTEN protein expression"}]}
